Patent US9187490B2, “Dimeric IAP inhibitors” (TetraLogic Pharmaceuticals Corporation, priority 2005, dated 2015)
Read-outs that look alike come from different tables or passages of the source. Each block holds one molecule with its values, some of them ahead of it.

What was measured:
XIAP-BIR3 = target: T1, XIAP-BIR3 (Homo sapiens, UniProt P98170); assay: XIAP BIR-3 fluorescence polarization binding assay; conditions: read-out: KD Range
T1 construct: 40 nM of XIAP-BIR3 for 15 min at RT
Method: Following incubation, the polarization values (mP) were measured on a Victor^2V using a 485 nm excitation filter and a 520 nm emission filter. IC50 values were determined from the plot using nonlinear least-squares analysis using GraphPad Prism.

MRC-5 cells = assay: 72 hour MTT assay, normal cell control MRC-5; type: cell-based; conditions: MRC-5 normal diploid cell line, FIG. 3
Method: (§1) A 72 hour MTT assay, as previously described by Hansen, M. B., Nielsen, S. E., and Berg, K. ((1989) J. Immunol. Methods 119, 203-210) and incorporated herein by reference in its entirety, was used to differentiate between a specific versus non-specific effect on cell killing by Smac mimetics. Briefly, SK-OV-3 cells were seeded in 96-well plates in McCoy's medium containing 10% fetal bovine serum […] (20,000 per well) and incubated overnight at 37 C. […] 50 microliters of 5 mg/mL MTT reagent was then added to each well and the plates were incubated at 37° C. for 3 hours. At the end of the incubation period, 50 microliters of DMSO was added to each well to dissolve cells and the optical density (OD) of the wells was measured using a microplate reader (Victor^2 1420, Wallac, Finland) at 535 nm. Cell survival (CS) was calculated by the following equation CS=(OD treated well/mean OD control wells)×100%
Smac mimetic Entry 116 was tested using an ovarian cancer cell line, SK-OV-3, and MRC-5 cells were used as a normal cell control.

SK-OV-3 cells = assay: 72 hour MTT cell survival assay, SK-OV-3; type: cell-based; conditions: SK-OV-3 ovarian cancer cell line, FIG. 3
Method: as §1
The EC50, defined as the drug concentration that results in 50% CS, was derived by calculating the point where the dose-response curve crosses the 50% CS point using GraphPad Prism.

MDA MB-231 cells = assay: Apoptosis induction, Annexin V/Propidium Iodide staining; type: cell-based
Method: To show the ability of Smac mimetics to induce apoptosis, Annexin V-fluorescein isothiocyanate staining was performed. […] Cells were then pelleted and resuspended in assay buffer (supplied by manufacturer). Annexin V and propidium iodide were added to the cell preparations and incubated for 1 hour in the dark at room temperature. Following the incubation additional buffer (200 μl) was then added to each tube, and the samples were analyzed immediately by flow cytometry. In the presence of Smac mimetics apoptosis was strongly promoted, as assessed by annexin/PI staining and analyzed by flow cytometry. The amplification in the number of apoptotic cells (Annexin V positive/propidium iodide negative—lower right quadrant) by IAP antagonists as compared to control was dose dependent and due to the induction of apoptosis and not via increasing the proportion of necrotic cells.

OVCAR-3 cells = assay: Cytotoxicity synergy matrix (MacSynergy II) with paclitaxel, cisplatin, carboplatin; type: cell-based
Method: To further assess potential drug-drug interactions a matrix of the permutations of two-fold serial dilutions of each drug and a Snac mimetic were tested as well as the activity of each compound alone using a program called MacSynergy II (Prichard, M. N., K. R. Aseltine, and C. Shipman, Jr. 1993. MacSynergy II. User's manual. Univ. of Michigan, Ann Arbor). The synergy with paclitaxel and the Smac peptidomimetic Entry 122 in OVCAR3 cells was tested. The highest amount of synergy detected is 10-20% which indicates greater cell death than would be expected by adding together the cytotoxicity of either compound alone.
Paclitaxel the dosage ranged from about 0.0 to about 500.0 nM. For Entry 122, the dosage range was about 125.0 to about 8000.0 nM. The total synergistic volume was about 170.
The synergy with cisplatin and the Smac peptidomimetics in OVCAR-3 cells was tested The highest amount of synergy is 40-50% more cell death than would be expected by adding together the cytotoxicity of each compound alone. […] For cisplatin the dosage range was about 0.0 to about 166,500.0 nM. For Entry 122, the dosage range was about 500.0 to about 32,000.0 nM. The total synergistic volume was about 434. Similar tests were performed with the combination of carboplatin and Smac mimetics. Synergy between a Smac peptidomimetic, Entry 122, and carboplatin.

[1] = Half life after single intravenous dose in rat; conditions: in vivo, single IV dose 1 mg/kg, FIG. 2, read-out: terminal elimination half life (converted)
Method: The IV dose for each Smac mimetic was 1 mg/kg.

[2] = 5 nM AbuRPF-K(5-Fam)-NH2, 40 nM XIAP-BIR3, 15 min RT, pH 7.5

T1 sequence (P98170 241-356 limits assumed): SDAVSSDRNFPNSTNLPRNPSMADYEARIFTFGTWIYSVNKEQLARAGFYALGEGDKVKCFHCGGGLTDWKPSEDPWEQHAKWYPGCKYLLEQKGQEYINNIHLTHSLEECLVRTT

Kd (XIAP-BIR3; Example 4 series): 100 to 1000 nM
Molecule: CNC(C)C(=O)NC(C(=O)N1CC(O)CC1Cc1c(-c2[nH]c3cc(F)ccc3c2CC2CC(O)CN2C(=O)C(NC(=O)C(C)NC)C(C)OC(C)(C)C)[nH]c2cc(F)ccc12)C(C)OC(C)(C)C (stereo not shown) [Entry 89]

Kd (XIAP-BIR3; Example 4 series): < 100 nM
Molecule: CNC(C)C(=O)NC(C(=O)N1CC(O)CC1Cc1c(-c2[nH]c3cc(F)ccc3c2CC2CC(O)CN2C(=O)C(NC(=O)C(C)NC)C(C)O)[nH]c2cc(F)ccc12)C(C)O (stereo not shown) [Entry 90]

Kd (XIAP-BIR3; Example 4 series): 100 to 1000 nM
Molecule: CN[C@H](C)C(=O)N[C@H](C(=O)N1CCC[C@H]1Cc1c(-c2[nH]c3cc(F)ccc3c2C[C@@H]2CCCN2C(=O)[C@@H](NC(=O)[C@@H](C)NC)C(C)C)[nH]c2cc(F)ccc12)C(C)C [Entry 91]

Kd (XIAP-BIR3; [2]): < 100 nM
Molecule: CNC(C)C(=O)NC1CC=CCC(NC(=O)C(C)NC)C(=O)N2CCCC2Cc2c3n(c4cc(F)ccc24)CCn2c-3c(c3ccc(F)cc32)CC2CCCN2C1=O (stereo not shown) [Entry 95]

Kd (XIAP-BIR3; [2]): < 100 nM
Molecule: CN[C@@H](C)C(=O)NC1CCCC[C@H](NC(=O)[C@H](C)NC)C(=O)N2CCC[C@H]2Cc2c3n(c4ccc(F)cc24)CCn2c-3c(c3cc(F)ccc32)C[C@@H]2CCCN2C1=O (stereo partly shown) [Entry 97]

Kd (XIAP-BIR3; Example 7 series): < 100 nM
Molecule: CN[C@@H](C)C(=O)N[C@H](C(=O)N1CCC[C@H]1Cc1c(-c2[nH]c3ccccc3c2C[C@@H]2CCCN2C(=O)[C@@H](NC(=O)[C@H](C)NC)[C@@H](C)O)[nH]c2ccccc12)[C@@H](C)O [Entry 105]

Kd (XIAP-BIR3; Example 7 series): < 100 nM
Molecule: CN[C@@H](C)C(=O)N[C@H](C(=O)N1C[C@@H](O)C[C@H]1Cc1c(-c2[nH]c3cc(F)ccc3c2C[C@@H]2C[C@H](O)CN2C(=O)[C@@H](NC(=O)[C@H](C)NC)[C@H](C)OC(C)(C)C)[nH]c2cc(F)ccc12)[C@H](C)OC(C)(C)C [Entry 114]

Molecule: CN[C@@H](C)C(=O)N[C@H](C(=O)N1C[C@@H](O)C[C@H]1Cc1c(-c2[nH]c3cc(F)ccc3c2C[C@@H]2C[C@H](O)CN2C(=O)[C@@H](NC(=O)[C@H](C)NC)[C@@H](C)OC)[nH]c2cc(F)ccc12)[C@@H](C)OC [Entry 116]
Kd (XIAP-BIR3; Example 7 series): < 100 nM | effect on normal (non-tumorigenic) cells (MRC-5 cells): unaffected | more effective at killing tumor cells than negative controls (SK-OV-3 cells): 100,000 ×

Kd (XIAP-BIR3; [2]): < 100 nM
Molecule: CN[C@@H](C)C(=O)N[C@H](C(=O)N1CCC[C@H]1Cc1cn(CC#CC#CCn2cc(C[C@@H]3CCCN3C(=O)[C@@H](NC(=O)[C@H](C)NC)C(C)(C)C)c3ccccc32)c2ccccc12)C(C)(C)C [Entry 119]

Kd (XIAP-BIR3; [2]): < 100 nM
Molecule: CN[C@@H](C)C(=O)N[C@H](C(=O)N1CCC[C@H]1Cc1cn(CC#CC#CCn2cc(C[C@@H]3CCCN3C(=O)[C@@H](NC(=O)[C@H](C)NC)C3CCCCC3)c3ccccc32)c2ccccc12)C1CCCCC1 [Entry 120]

Kd (XIAP-BIR3; [2]): < 100 nM
Molecule: CN[C@@H](C)C(=O)N[C@H](C(=O)N1CCC[C@H]1Cc1cn(CC#CC#CCn2cc(C[C@@H]3CCCN3C(=O)[C@@H](NC(=O)[C@H](C)NC)C(C)C)c3ccccc32)c2ccccc12)C(C)C [Entry 121]
apoptosis induced, agent alone (MDA MB-231 cells; MDA MB-231, after 4 hours): failed to induce significant apoptosis | increase in apoptotic activity, combination of TRAIL with compound (MDA MB-231 cells; MDA MB-231, after 4 hours): 4 fold | apoptosis, compound alone (MDA MB-231 cells; MDA MB-231, without TRAIL): approximately 10 % of cell total

Kd (XIAP-BIR3; Example 9 series): < 100 nM | half-life [1]: ≤ 6 h
Molecule: CN[C@@H](C)C(=O)N[C@H](C(=O)N1CCC[C@H]1Cc1cn(CCOCCn2cc(C[C@@H]3CCCN3C(=O)[C@@H](NC(=O)[C@H](C)NC)C3CCCCC3)c3ccccc32)c2ccccc12)C1CCCCC1 [Entry 122]
total synergistic volume (OVCAR-3 cells; OVCAR3, paclitaxel 0.0-500.0 nM, compound 125.0-8000.0 nM): about 170 | highest amount of synergy detected (OVCAR-3 cells; OVCAR3, with paclitaxel): 10-20% | total synergistic volume (OVCAR-3 cells; OVCAR-3, cisplatin 0.0-166,500.0 nM, compound 500.0-32,000.0 nM): about 434 | synergy with carboplatin (OVCAR-3 cells; OVCAR-3, with carboplatin): Synergy | highest amount of synergy, more cell death than expected (OVCAR-3 cells; OVCAR-3, with cisplatin): 40-50%

Kd (XIAP-BIR3; Example 9 series): < 100 nM | half-life [1]: ≤ 6 h
Molecule: CN[C@@H](C)C(=O)N[C@H](C(=O)N1CCC[C@H]1Cc1cn(CCOCCn2cc(C[C@@H]3CCCN3C(=O)[C@@H](NC(=O)[C@H](C)NC)C3CCCCC3)c3ccc(F)cc32)c2cc(F)ccc12)C1CCCCC1 [Entry 123]

Kd (XIAP-BIR3; Example 9 series): < 100 nM
Molecule: CN[C@@H](C)C(=O)N[C@H](C(=O)N1CCC[C@H]1Cc1cn(CCOCCn2cc(C[C@@H]3CCCN3C(=O)[C@@H](NC(=O)[C@H](C)NC)[C@@H](C)O)c3ccc(F)cc32)c2cc(F)ccc12)[C@@H](C)O [Entry 124]

Kd (XIAP-BIR3; Example 9 series): 100 to 1000 nM
Molecule: CC[C@H](NC)C(=O)N[C@H](C(=O)N1CCC[C@H]1Cc1cn(CCOCCn2cc(C[C@@H]3CCCN3C(=O)[C@@H](NC(=O)[C@H](CC)NC)[C@@H](C)O)c3cc(F)ccc32)c2ccc(F)cc12)[C@@H](C)O [Entry 125]

Kd (XIAP-BIR3; Example 9 series): < 100 nM
Molecule: CN[C@@H](C)C(=O)N[C@H](C(=O)N1CCC[C@H]1Cc1cn(CCOCCn2cc(C[C@@H]3CCCN3C(=O)[C@@H](NC(=O)[C@H](C)NC)C3CCCCC3)c3cc(F)ccc32)c2ccc(F)cc12)C1CCCCC1 [Entry 126]

Kd (XIAP-BIR3; Example 9 series): < 100 nM
Molecule: CN[C@@H](C)C(=O)N[C@H](C(=O)N1CCC[C@H]1Cc1c(C)n(CCOCCn2c(C)c(C[C@@H]3CCCN3C(=O)[C@@H](NC(=O)[C@H](C)NC)C3CCCCC3)c3cc(F)ccc32)c2ccc(F)cc12)C1CCCCC1 [Entry 127]

Kd (XIAP-BIR3; Example 9 series): < 100 nM
Molecule: CN[C@@H](C)C(=O)N[C@H](C(=O)N1CCC[C@H]1Cc1cn(CCOCCn2cc(C[C@@H]3CCCN3C(=O)[C@@H](NC(=O)[C@H](C)N)C3CCCCC3)c3ccccc32)c2ccccc12)C1CCCCC1 [Entry 143]

B1: TRAIL: tumor necrosis factor-related apoptosis-inducing ligand (TRAIL) (protein, UniProt P50591 1-281, looked up)
Tumor necrosis factor ligand …: MAMMEVQGGPSLGQTCVLIVIFTVLLQSLCVAVTYVYFTNELKQMQDKYSKSGIACFLKEDDSYWDPNDEESMNSPCWQVKWQLRQLVRKMILRTSEETISTVQEKQQNISPLVRERGPQRVAAHITGTRGRSNTLSSPNSKNEKALGRKINSWESSRSGHSFLSNLHLRNGELVIHEKGFYYIYSQTYFRFQEEIKENTKNDKQMVQYIYKYTSYPDPILLMKSARNSCWSKDAEYGLYSIYQGGIFELKENDRIFVSVTNEHLIDMDHEASFFGAFLVG
apoptosis induced, agent alone (MDA MB-231 cells; MDA MB-231, after 4 hours): little, if any
